What was measured:
Assay in all cases: relative viability (nuclei count vs DMSO), 5 days (fraction); higher = more cells survive
Neratinib + Trametinib = compound: CCOc1cc2ncc(C#N)c(Nc3ccc(OCc4ccccn4)c(Cl)c3)c2cc1NC(=O)/C=C/CN(C)C [Neratinib] + CC(=O)Nc1cccc(-n2c(=O)n(C3CC3)c(=O)c3c(Nc4ccc(I)cc4F)n(C)c(=O)c(C)c32)c1 [Trametinib] (partner 0.02 µM)
Summary of the method: (§1)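 Dosing by pin tool came one day after lung cancer cell lines were seeded in 1536-well plates, using either one drug or a fixed anchor-drug dose plus five library-drug doses (not always all listed) in √10 steps. After 5 days, nuclei were counted on 4× images. Relative viability is treated-well nuclei count divided by vehicle-well nuclei count, and values are medians of duplicate plates.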

Neratinib + Olaparib = compound: CCOc1cc2ncc(C#N)c(Nc3ccc(OCc4ccccn4)c(Cl)c3)c2cc1NC(=O)/C=C/CN(C)C [Neratinib] + O=C(c1cc(Cc2n[nH]c(=O)c3ccccc23)ccc1F)N1CCN(C(=O)C2CC2)CC1 [Olaparib] (partner 8 µM)
Summary of the method: as §1

Neratinib + Phenformin = compound: CCOc1cc2ncc(C#N)c(Nc3ccc(OCc4ccccn4)c(Cl)c3)c2cc1NC(=O)/C=C/CN(C)C [Neratinib] + N=C(N)NC(=N)NCCc1ccccc1 [Phenformin] (partner 250 µM)
Summary of the method: as §1

Neratinib = compound: CCOc1cc2ncc(C#N)c(Nc3ccc(OCc4ccccn4)c(Cl)c3)c2cc1NC(=O)/C=C/CN(C)C [Neratinib]
Summary of the method: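 Cells of lung cancer lines were placed in 1536-well plates and kept overnight at 37 °C. Pinning then delivered five library-drug doses (not always all listed), spaced by √10, onto plates anchored with vehicle, and the cells were left 5 days without changing medium. One step fixed, permeabilised and stained them with Hoechst, and MetaXpress counted nuclei in 4× images. Viability, as a median over plates, is treated-well nuclei divided by vehicle-well nuclei, with acceptance only at control CV below 25% and at least one doubling.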

Row | Cell Line | relative viability (Neratinib + Trametinib; first compound 0.01 µM) | relative viability (Neratinib + Trametinib; first compound 0.03162 µM) | relative viability (Neratinib + Trametinib; first compound 0.1 µM) | relative viability (Neratinib + Trametinib; first compound 0.3162 µM) | relative viability (Neratinib + Trametinib; first compound 1 µM) | relative viability (Neratinib + Olaparib; first compound 0.01 µM) | relative viability (Neratinib + Olaparib; first compound 0.03162 µM) | relative viability (Neratinib + Olaparib; first compound 0.1 µM) | relative viability (Neratinib + Olaparib; first compound 0.3162 µM) | relative viability (Neratinib + Olaparib; first compound 1 µM) | relative viability (Neratinib + Phenformin; first compound 0.01 µM) | relative viability (Neratinib + Phenformin; first compound 0.03162 µM) | relative viability (Neratinib + Phenformin; first compound 0.1 µM) | relative viability (Neratinib + Phenformin; first compound 0.3162 µM) | relative viability (Neratinib + Phenformin; first compound 1 µM) | relative viability (Neratinib; 0.01 µM) | relative viability (Neratinib; 0.03162 µM) | relative viability (Neratinib; 0.1 µM) | relative viability (Neratinib; 0.3162 µM) | relative viability (Neratinib; 1 µM)
1 | COR-L23 | 0.572 | 0.603 | 0.598 | 0.482 | 0.379 | 0.349 | 0.398 | 0.275 | 0.365 | 0.311 | 0.44 | 0.469 | 0.429 | 0.473 | 0.41 | 1.21 | 1.17 | 0.87 | 1.02 | 0.86
2 | NCI-H1755 | 0.761 | 0.814 | 0.646 | 0.752 | 0.809 | 0.925 | 0.922 | 0.807 | 0.918 | 0.824 | 0.641 | 0.657 | 0.535 | 0.593 | 0.577 |  | 1.01 | 0.858 | 1.02 | 1.05
3 | NCI-H1437 | 0.488 | 0.579 | 0.485 | 0.424 | 0.328 | 0.673 | 0.614 | 0.612 | 0.603 | 0.663 | 0.351 | 0.284 | 0.281 | 0.243 | 0.29 | 1.05 | 1.03 | 0.95 | 0.94 | 0.95
4 | NCI-H2087 | 0.19 | 0.173 | 0.15 | 0.194 | 0.16 | 0.622 | 0.496 | 0.643 | 0.424 | 0.255 | 0.493 | 0.567 | 0.391 | 0.415 | 0.234 | 1.15 | 0.894 | 0.829 | 0.883 | 0.644
5 | H3255 | 0.619 | 0.602 | 0.426 | 0.241 | 0.236 | 0.58 | 0.571 | 0.463 | 0.264 | 0.214 | 0.311 | 0.28 | 0.242 | 0.222 | 0.246 | 1.07 | 0.985 | 0.78 | 0.327 | 0.224
6 | NCI-H838 | 0.53 | 0.554 | 0.502 | 0.499 | 0.281 | 0.762 | 0.785 | 0.798 | 0.649 | 0.399 | 0.63 | 0.669 | 0.579 | 0.433 | 0.234 | 1 | 1.02 | 0.88 | 0.946 | 0.532
7 | LCLC-103H | 0.739 | 0.733 | 0.618 | 0.681 | 0.639 | 0.63 | 0.85 | 0.705 | 0.726 | 0.642 | 0.353 | 0.344 | 0.34 | 0.293 | 0.293 | 0.996 | 0.997 | 0.897 | 1.07 | 0.989
8 | LOU-NH91 | 0.795 | 0.746 | 0.698 | 0.67 | 0.597 | 0.977 | 0.944 |  | 0.678 | 0.632 | 0.664 | 0.634 | 0.525 | 0.426 | 0.412 | 0.988 | 0.92 | 0.796 | 0.691 | 0.676
9 | NCI-H1650 | 0.62 | 0.744 | 0.494 | 0.405 | 0.315 | 0.867 | 0.712 | 0.717 | 0.652 | 0.796 | 0.464 | 0.422 | 0.311 | 0.302 | 0.271 | 0.985 | 0.906 | 0.833 | 0.68 | 0.694
10 | NCI-H322M | 0.519 | 0.486 | 0.506 | 0.488 | 0.373 | 0.715 |  | 0.785 | 0.512 | 0.415 | 0.762 | 0.671 | 0.671 | 0.376 | 0.283 | 0.956 | 0.926 | 0.784 | 0.491 | 0.288
11 | SW 1573 | 0.554 | 0.57 | 0.497 | 0.593 | 0.276 | 0.634 | 0.444 | 0.374 | 0.391 | 0.287 | 0.431 | 0.466 | 0.384 | 0.311 | 0.185 | 1.09 | 1.18 | 0.828 | 0.912 | 0.716
12 | NCI-H1651 | 0.87 |  | 0.793 | 0.759 | 0.609 | 0.183 | 0.191 | 0.185 | 0.19 | 0.193 | 0.332 | 0.383 | 0.339 | 0.27 | 0.32 | 1.04 | 1.08 | 0.952 | 0.907 | 0.822
13 | NCI-H2126 | 0.646 | 0.552 | 0.543 | 0.497 | 0.36 | 0.958 | 0.891 | 0.815 | 0.871 | 0.492 | 0.534 | 0.535 | 0.487 | 0.484 | 0.381 | 1.03 | 0.998 | 0.904 | 0.907 | 0.553

— the supplement of paper PMC10307832
